Experimental data reported in PubChem BioAssay (NCI).
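Test compounds were applied to cells in 96-well plates for 48 hours at 5 doses. GI50 = concentration required for 50% inhibition of growth. TGI is the concentration that stops growth completely.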

Assays:
Experiment in all cases: inhibition of tumour cell growth, NCI panel, 48 h
A498 renal = system: A498 renal
COLO 205 colon = system: COLO 205 colon
HT29 colon = system: HT29 colon
IGROV1 ovarian = system: IGROV1 ovarian
KM20L2 colon = system: KM20L2 colon
LXFL 529 NSCLC = system: LXFL 529 NSCLC
SK-MEL-5 melanoma = system: SK-MEL-5 melanoma
SK-OV-3 ovarian = system: SK-OV-3 ovarian
SN12C renal = system: SN12C renal

Row | Compound | GI50 (A498 renal) [µM] | TGI (A498 renal) [µM] | GI50 (COLO 205 colon) [µM] | TGI (COLO 205 colon) [µM] | GI50 (HT29 colon) [µM] | TGI (HT29 colon) [µM] | GI50 (IGROV1 ovarian) [µM] | TGI (IGROV1 ovarian) [µM] | GI50 (KM20L2 colon) [µM] | TGI (KM20L2 colon) [µM] | GI50 (LXFL 529 NSCLC) [µM] | TGI (LXFL 529 NSCLC) [µM] | GI50 (SK-MEL-5 melanoma) [µM] | TGI (SK-MEL-5 melanoma) [µM] | GI50 (SK-OV-3 ovarian) [µM] | TGI (SK-OV-3 ovarian) [µM] | GI50 (SN12C renal) [µM] | TGI (SN12C renal) [µM]
1 | CC(=O)[CH-]C(C)=O.CC(=O)[CH-]C(C)=O.[CH2-]CCC.[CH2-]CCC.[Sn+4] | 0.259 | 0.73 | 0.304 | 1.05 | 1.28 | 2.59 | 1.23 | 2.66 | 1.36 | 2.65 | 0.0493 | 0.185 | 0.848 | 2.15 | 1.69 | 3.09 | 0.346 | 1.67
2 | CCCCCC(=O)C(C)C1=Nc2nnc(CCCCCCCc3nnc4n3C(=O)C(C(C)C(=O)CCCCC)=N4)n2C1=O (stereo not drawn) | – | – | – | > 100 | – | > 100 | – | > 100 | – | > 100 | – | > 100 | – | > 100 | – | > 100 | – | > 100
3 | CCOC(=O)C1N(S(=O)(=O)c2ccc(C)cc2)CCC12c1ccccc1N(C(C)=O)C2c1ccc(OC)c(OC)c1 (stereo not drawn) | – | > 100 | – | > 100 | – | > 100 | – | > 100 | – | > 100 | – | > 100 | – | > 100 | – | > 100 | – | > 100
4 | COc1ccc(OC)c(/C(C)=N/NC(N)=S)c1 | – | > 100 | – | > 100 | – | > 100 | – | > 100 | – | > 100 | – | > 100 | – | > 100 | – | > 100 | – | > 100
5 | COc1ccc(S(=O)(=O)Nc2ccccc2C(=O)O)cc1 | – | > 100 | – | > 100 | – | > 100 | – | > 100 | – | > 100 | – | > 100 | – | > 100 | – | > 100 | – | > 100
6 | C=C(COC(C)=O)CC(OC(C)=O)c1ccccc1 (stereo not drawn) | – | > 100 | – | > 100 | – | > 100 | – | > 100 | – | > 100 | – | > 100 | – | > 100 | – | > 100 | – | > 100
7 | CC1CCC2(CC1)NN=c1s/c(=C\c3ccc(O)cc3)c(=O)n1N2 (stereo not drawn) | – | – | – | > 100 | – | > 100 | – | > 100 | – | > 100 | – | > 100 | – | > 100 | – | > 100 | – | > 100
8 | CC(C)CC(NC(=O)c1cccc(O)c1O)C(=O)NCc1cc(CNC(=O)C(CC(C)C)NC(=O)c2cccc(O)c2O)cc(CNC(=O)C(CC(C)C)NC(=O)c2cccc(O)c2O)c1 (stereo not drawn) | – | > 100 | – | 34.3 | – | 30.9 | – | 27.1 | – | 21 | – | 13.8 | – | 30.4 | – | 35.5 | – | 56.3
9 | CCC[CH2][Sn]1([CH2]CCC)[O]CC(Cc2ccccc2)[O]1 (stereo not drawn) | 2.77 | 8.22 | 2.55 | 5.7 | 4.43 | 14.5 | 3.8 | 13.8 | 5.33 | 18.2 | 1.15 | 2.39 | 3.09 | 14.2 | 12 | 25.1 | 3.5 | 11.7
10 | O=C1c2ccccc2C(Br)(Br)c2ccccc21 | – | – | – | > 31.6 | – | > 100 | – | > 31.6 | – | > 100 | – | > 31.6 | – | > 31.6 | – | > 31.6 | – | > 31.6
11 | Cc1ccc(SC(CCC(Sc2ccc(C)cc2)Sc2ccc(C)cc2)Sc2ccc(C)cc2)cc1 | – | > 100 | – | > 100 | – | – | – | > 100 | – | > 100 | – | – | – | > 100 | – | > 100 | – | > 100
12 | C[N-]c1nnnn1C.[Au+].c1ccc([PH+](c2ccccc2)c2ccccc2)cc1 | – | – | 3.33 | 8.81 | 2 | 4.53 | 2.76 | 9.99 | 4.05 | 10.3 | 1.37 | 2.83 | 1.59 | 3.65 | 13 | 26.6 | 3.46 | 7.92
13 | CC(=O)[O][Ga]([Cl])[O]C(C)=O | > 100 | > 100 | > 100 | > 100 | > 100 | > 100 | > 100 | > 100 | > 100 | > 100 | > 100 | > 100 | > 100 | > 100 | > 100 | > 100 | > 100 | > 100
14 | [Cl-].[O-]/N=C(\c1ccccc1)c1ccccn1.[O-]/N=C(\c1ccccc1)c1ccccn1.[O-]/N=C(\c1ccccc1)c1ccccn1.[Sm+3] | 58.3 | > 100 | 31.3 | > 100 | 44 | > 100 | 27.8 | 79.6 | 40.1 | > 100 | 41.4 | > 100 | 20.5 | 47 | 32.6 | > 100 | 33.1 | > 100
15 | Cc1[nH]c2ccccc2c1C(=O)CC1(O)C(=O)Nc2ccccc21 (stereo not drawn) | – | > 100 | – | > 100 | – | > 100 | – | > 100 | – | > 100 | – | > 100 | – | > 100 | – | > 100 | – | > 100
